In patent US5561140A, “Substituted alicyclic amine-containing macrocyclic immunomodulators” (Abbott Laboratories, priority 1995, dated 1996):

Each compound was assayed on human mixed lymphocyte reaction (MLR) (assay: human mixed lymphocyte reaction (MLR) assay of immunosuppressant activity). Details: Table 1.
Type: cell-based
Method: The immunosuppressant activity of the compounds of the present invention was determined using the human mixed lymphocyte reaction (MLR) assay described by Kino, T. et al. in Transplantation Proceedings XIX(5):36-39, Suppl. 6 (1987), incorporated herein by reference.

IC50, < 1000 nM:
CC[C@@H]1/C=C(\C)C[C@H](C)C[C@H](OC)[C@H]2O[C@@](O)(C(=O)C(=O)N3CCCC[C@H]3C(=O)O[C@H](/C(C)=C/[C@@H]3CCC(N4CCC5(CC4)OCCO5)[C@H](OC)C3)[C@H](C)[C@@H](O)CC1=O)[C@H](C)C[C@@H]2OC (stereo partly shown) [Example 16]
CC[C@@H]1/C=C(\C)C[C@H](C)C[C@H](OC)[C@H]2O[C@@](O)(C(=O)C(=O)N3CCCC[C@H]3C(=O)O[C@H](/C(C)=C/[C@@H]3CCC(N4CCNCC4)[C@H](OC)C3)[C@H](C)[C@@H](O)CC1=O)[C@H](C)C[C@@H]2OC (stereo partly shown) [Example 22]
CC[C@@H]1/C=C(\C)C[C@H](C)C[C@H](OC)[C@H]2O[C@@](O)(C(=O)C(=O)N3CCCC[C@H]3C(=O)O[C@H](/C(C)=C/[C@@H]3CCC(N4CCN(CCOCCO)CC4)[C@H](OC)C3)[C@H](C)[C@@H](O)CC1=O)[C@H](C)C[C@@H]2OC (stereo partly shown) [Example 19]
CC[C@@H]1/C=C(\C)C[C@H](C)C[C@H](OC)[C@H]2O[C@@](O)(C(=O)C(=O)N3CCCC[C@H]3C(=O)O[C@H](/C(C)=C/[C@@H]3CCC(N4CCN(Cc5ccccc5)CC4)[C@H](OC)C3)[C@H](C)[C@@H](O)CC1=O)[C@H](C)C[C@@H]2OC (stereo partly shown) [Example 7]
CC[C@@H]1/C=C(\C)C[C@H](C)C[C@H](OC)[C@H]2O[C@@](O)(C(=O)C(=O)N3CCCC[C@H]3C(=O)O[C@H](/C(C)=C/[C@@H]3CCC(N4CCN(CC(=O)N5CCCC5)CC4)[C@H](OC)C3)[C@H](C)[C@@H](O)CC1=O)[C@H](C)C[C@@H]2OC (stereo partly shown) [Example 27]
CC[C@@H]1/C=C(\C)C[C@H](C)C[C@H](OC)[C@H]2O[C@@](O)(C(=O)C(=O)N3CCCC[C@H]3C(=O)O[C@H](/C(C)=C/[C@@H]3CCC(N4CCN(C5CCCC5)CC4)[C@H](OC)C3)[C@H](C)[C@@H](O)CC1=O)[C@H](C)C[C@@H]2OC (stereo partly shown) [Example 31]
CCC1C=C(C)CC(C)CC(OC)C2OC(O)(C(=O)C(=O)N3CCCCC3C(=O)OC(C(C)=CC3CCC(N4CCN(Cc5ccc6ccccc6c5)CC4)C(OC)C3)C(C)C(O)CC1=O)C(C)CC2OC (stereo not shown) [Example 13]
CC[C@@H]1/C=C(\C)C[C@H](C)C[C@H](OC)[C@H]2O[C@@](O)(C(=O)C(=O)N3CCCC[C@H]3C(=O)O[C@H](/C(C)=C/[C@@H]3CCC(N4CCN(CCO)CC4)[C@H](OC)C3)[C@H](C)[C@@H](O)CC1=O)[C@H](C)C[C@@H]2OC (stereo partly shown) [Example 17]
CC[C@@H]1/C=C(\C)C[C@H](C)C[C@H](OC)[C@H]2O[C@@](O)(C(=O)C(=O)N3CCCC[C@H]3C(=O)O[C@H](/C(C)=C/[C@@H]3CCC(N4CCN(C(C)=O)CC4)[C@H](OC)C3)[C@H](C)[C@@H](O)CC1=O)[C@H](C)C[C@@H]2OC (stereo partly shown) [Example 61]
CC[C@@H]1/C=C(\C)C[C@H](C)C[C@H](OC)[C@H]2O[C@@](O)(C(=O)C(=O)N3CCCC[C@H]3C(=O)O[C@H](/C(C)=C/[C@@H]3CCC(N4CCCCC4)[C@H](OC)C3)[C@H](C)[C@@H](O)CC1=O)[C@H](C)C[C@@H]2OC (stereo partly shown) [Example 14]
CC[C@@H]1/C=C(\C)C[C@H](C)C[C@H](OC)[C@H]2O[C@@](O)(C(=O)C(=O)N3CCCC[C@H]3C(=O)O[C@H](/C(C)=C/[C@@H]3CCC(N4CCC[C@H]4CO)[C@H](OC)C3)[C@H](C)[C@@H](O)CC1=O)[C@H](C)C[C@@H]2OC (single isomer, unassigned) [Example 109]
CC[C@@H]1/C=C(\C)C[C@H](C)C[C@H](OC)[C@H]2O[C@@](O)(C(=O)C(=O)N3CCCC[C@H]3C(=O)O[C@H](/C(C)=C/[C@@H]3CCC(N4CCCC(CO)C4)[C@H](OC)C3)[C@H](C)[C@@H](O)CC1=O)[C@H](C)C[C@@H]2OC (stereo partly shown) [Example 106]
CC[C@@H]1/C=C(\C)C[C@H](C)C[C@H](OC)[C@H]2O[C@@](O)(C(=O)C(=O)N3CCCC[C@H]3C(=O)O[C@H](/C(C)=C/[C@@H]3CCC(N4CCN(C=O)CC4)[C@H](OC)C3)[C@H](C)[C@@H](O)CC1=O)[C@H](C)C[C@@H]2OC (stereo partly shown) [Example 15]
CC[C@@H]1/C=C(\C)C[C@H](C)C[C@H](OC)[C@H]2O[C@@](O)(C(=O)C(=O)N3CCCC[C@H]3C(=O)O[C@H](/C(C)=C/[C@@H]3CCC(N4CCN(C(=O)OC(C)(C)C)CC4)[C@H](OC)C3)[C@H](C)[C@@H](O)CC1=O)[C@H](C)C[C@@H]2OC (stereo partly shown) [Example 11]
CCC1C=C(C)CC(C)CC(OC)C2OC(O)(C(=O)C(=O)N3CCCCC3C(=O)OC(C(C)=CC3CCC(N4CCN(Cc5ccc([N+](=O)[O-])cc5)CC4)C(OC)C3)C(C)C(O)CC1=O)C(C)CC2OC (stereo not shown) [Example 12]
CC[C@@H]1/C=C(\C)C[C@H](C)C[C@H](OC)[C@H]2O[C@@](O)(C(=O)C(=O)N3CCCC[C@H]3C(=O)O[C@H](/C(C)=C/[C@@H]3CCC(N4CCC(N5CCCC5)CC4)[C@H](OC)C3)[C@H](C)[C@@H](O)CC1=O)[C@H](C)C[C@@H]2OC (stereo partly shown) [Example 44]
CCOC(=O)N1CCN(C2CC[C@@H](/C=C(\C)[C@H]3OC(=O)[C@@H]4CCCCN4C(=O)C(=O)[C@]4(O)O[C@H]([C@@H](OC)C[C@@H](C)C/C(C)=C/[C@@H](CC)C(=O)C[C@H](O)[C@H]3C)[C@@H](OC)C[C@H]4C)C[C@H]2OC)CC1 (stereo partly shown) [Example 58]
CC[C@@H]1/C=C(\C)C[C@H](C)C[C@H](OC)[C@H]2O[C@@](O)(C(=O)C(=O)N3CCCC[C@H]3C(=O)O[C@H](/C(C)=C/[C@@H]3CCC(N4CCCCC4CO)[C@H](OC)C3)[C@H](C)[C@@H](O)CC1=O)[C@H](C)C[C@@H]2OC (stereo partly shown) [Example 105]
CC[C@@H]1/C=C(\C)C[C@H](C)C[C@H](OC)[C@H]2O[C@@](O)(C(=O)C(=O)N3CCCC[C@H]3C(=O)O[C@H](/C(C)=C/[C@@H]3CCC(N4CCC(O)CC4)[C@H](OC)C3)[C@H](C)[C@@H](O)CC1=O)[C@H](C)C[C@@H]2OC (stereo partly shown) [Example 67]
CC[C@@H]1/C=C(\C)C[C@H](C)C[C@H](OC)[C@H]2O[C@@](O)(C(=O)C(=O)N3CCCC[C@H]3C(=O)O[C@H](/C(C)=C/[C@@H]3CCC(N4CCN(C)CC4)[C@H](OC)C3)[C@H](C)[C@@H](O)CC1=O)[C@H](C)C[C@@H]2OC (stereo partly shown) [Example 5]
CC[C@@H]1/C=C(\C)C[C@H](C)C[C@H](OC)[C@H]2O[C@@](O)(C(=O)C(=O)N3CCCC[C@H]3C(=O)O[C@H](/C(C)=C/[C@@H]3CCC(N4CCCC(O)C4)[C@H](OC)C3)[C@H](C)[C@@H](O)CC1=O)[C@H](C)C[C@@H]2OC (stereo partly shown) [Example 108]
CCC1C=C(C)CC(C)CC(OC)C2OC(O)(C(=O)C(=O)N3CCCCC3C(=O)OC(C(C)=CC3CCC(N4CCN(Cc5ccc6c(c5)OCO6)CC4)C(OC)C3)C(C)C(O)CC1=O)C(C)CC2OC (stereo not shown) [Example 38]
CC[C@@H]1/C=C(\C)C[C@H](C)C[C@H](OC)[C@H]2O[C@@](O)(C(=O)C(=O)N3CCCC[C@H]3C(=O)O[C@H](/C(C)=C/[C@@H]3CCC(N4CCOCC4)[C@H](OC)C3)[C@H](C)[C@@H](O)CC1=O)[C@H](C)C[C@@H]2OC (stereo partly shown) [Example 18]
CC[C@@H]1/C=C(\C)C[C@H](C)C[C@H](OC)[C@H]2O[C@@](O)(C(=O)C(=O)N3CCCC[C@H]3C(=O)O[C@H](/C(C)=C/[C@@H]3CCC(N4CCCCC4CCO)[C@H](OC)C3)[C@H](C)[C@@H](O)CC1=O)[C@H](C)C[C@@H]2OC (stereo partly shown) [Example 107]
CC[C@@H]1/C=C(\C)C[C@H](C)C[C@H](OC)[C@H]2O[C@@](O)(C(=O)C(=O)N3CCCC[C@H]3C(=O)O[C@H](/C(C)=C/[C@@H]3CCC(N4CCN(CC(=O)N5CCOCC5)CC4)[C@H](OC)C3)[C@H](C)[C@@H](O)CC1=O)[C@H](C)C[C@@H]2OC (stereo partly shown) [Example 28]
CC[C@@H]1/C=C(\C)C[C@H](C)C[C@H](OC)[C@H]2O[C@@](O)(C(=O)C(=O)N3CCCC[C@H]3C(=O)O[C@H](/C(C)=C/[C@@H]3CCC(N4CCN(c5ncccn5)CC4)[C@H](OC)C3)[C@H](C)[C@@H](O)CC1=O)[C@H](C)C[C@@H]2OC (stereo partly shown) [Example 21]
CC[C@@H]1/C=C(\C)C[C@H](C)C[C@H](OC)[C@H]2O[C@@](O)(C(=O)C(=O)N3CCCC[C@H]3C(=O)O[C@H](/C(C)=C/[C@@H]3CCC(N4CCN(c5ccc(C(C)=O)cc5)CC4)[C@H](OC)C3)[C@H](C)[C@@H](O)CC1=O)[C@H](C)C[C@@H]2OC (stereo partly shown) [Example 39]
CC[C@@H]1/C=C(\C)C[C@H](C)C[C@H](OC)[C@H]2O[C@@](O)(C(=O)C(=O)N3CCCC[C@H]3C(=O)O[C@H](/C(C)=C/[C@@H]3CCC(N4CCN(c5ccccn5)CC4)[C@H](OC)C3)[C@H](C)[C@@H](O)CC1=O)[C@H](C)C[C@@H]2OC (stereo partly shown) [Example 20]
CC[C@@H]1/C=C(\C)C[C@H](C)C[C@H](OC)[C@H]2O[C@@](O)(C(=O)C(=O)N3CCCC[C@H]3C(=O)O[C@H](/C(C)=C/[C@@H]3CCC(N4CCC[C@@H]4CO)[C@H](OC)C3)[C@H](C)[C@@H](O)CC1=O)[C@H](C)C[C@@H]2OC (single isomer, unassigned) [Example 76]
CC[C@@H]1/C=C(\C)C[C@H](C)C[C@H](OC)[C@H]2O[C@@](O)(C(=O)C(=O)N3CCCC[C@H]3C(=O)O[C@H](/C(C)=C/[C@@H]3CCC(N4CCN(CC(=O)NC(C)C)CC4)[C@H](OC)C3)[C@H](C)[C@@H](O)CC1=O)[C@H](C)C[C@@H]2OC (stereo partly shown) [Example 62]
CC[C@@H]1/C=C(\C)C[C@H](C)C[C@H](OC)[C@H]2O[C@@](O)(C(=O)C(=O)N3CCCC[C@H]3C(=O)O[C@H](/C(C)=C/[C@@H]3CCC(N4CCN(c5ccccc5)CC4)[C@H](OC)C3)[C@H](C)[C@@H](O)CC1=O)[C@H](C)C[C@@H]2OC (stereo partly shown) [Example 9]
